# Test results reported in US20250000785A1, “COSMETIC COMPOSITION COMPRISING CRANBERRY EXTRACT AND CRANBERRY SEED OIL” (Givaudan SA, priority 2021, published 2025).
# System: TNF-α release of Normal Human Epidermal Keratinocytes (NHEKs) stressed with PMA
# Assay: TNF-α release by NHEKs stressed with PMA (ELISA quantification, normalised with MTT)
# Type: cell-based
# Details: dexamethasone 1 μM, 24 h pre-incubation, then PMA 1 ng/ml 24 h; vs untreated PMA-stressed NHEKs; p<0.001
# Protocol: The effect of a cranberry extract, a cranberry seed oil and combinations of a cranberry extract and a cranberry seed oil on the anti-inflammatory activity of keratinocytes stressed with PMA was evaluated by comparing the decrease of the cytokine TNF-α release of Normal Human Epidermal Keratinocytes (NHEKs) treated with the cranberry products and stressed with PMA (Phorbol 12-myristate 13-acetate) with the TNF-α release of untreated NHEKs stressed with PMA.
# The cell culture was done on primary cells isolated from fresh biopsies. NHEKs were seeded in a type I collagen pre-coated 24 wells-plate at 30 000 cells per well in triplicate. […]
# A MTT assay was performed to evaluate treatments toxicity and for the normalisation of TNF-α quantification.
# MTT solution (Sigma) diluted at 1 mg/mL in basal medium was added to each well and incubated for 3 hours at 37° C., 5% CO2. […] The optical density was measured at a wavelength of 560 nm.
# The TNF-α quantification was realized with the Human TNF-alpha Quantikine ELISA kit (DTA00D, R&D Systems).
# The samples and the standard range were incubated for 2 hours in 96-wells plate pre-coated with a monoclonal antibody specific for human TNF-α in presence of the Assay Diluent RD1F. […] The optical density was measured at 450 nm and 540 nm with a microplate reader (TECAN SPARK® 10M). […]
# The quantification was carried out in duplicate. […]
structure (smiles),measurement,value
"C[C@@H]1C[C@H]2[C@@H]3CCC4=CC(=O)C=C[C@]4(C)[C@@]3(F)[C@@H](O)C[C@]2(C)[C@@]1(O)C(=O)CO [dexamethasone, Dexamethasone]",reduction of the release of cytokine TNF-α,46%
